Test results as given in patent US7271165B2, “Rifamycin analogs and uses thereof” (priority 2003, dated 2007).
In brackets after ≈: the same amount, converted by molar mass.

Tests used:
[1] = test system: S. pneumo.; experiment: MIC assay, S. pneumo.; format: cell-based, Streptococcus pneumoniae
[2] = test system: H. flu; format: cell-based, H. influenza; conditions: H. flu
[3] = test system: S. aureus; experiment: MIC assay, S. aureus; format: cell-based, Staphylococcus aureus
[4] = test system: E coli; experiment: MIC assay, E coli; format: cell-based
[5] = test system: E. faecalis; experiment: MIC assay, E. faecalis; format: cell-based, Enterococcus faecalis

Row | Compound | MIC (μg/mL) S. pneumo. [1] [µg/mL] | MIC (μg/mL) H. flu [2] [µg/mL] | MIC (μg/mL) S. aureus [3] [µg/mL] | MIC (μg/mL) E coli [4] [µg/mL] | MIC (μg/mL) E. faecalis [5] [µg/mL]
1 | 3′-hydroxy-5′-(4-ethylcarbamyl-1-piperidinyl)benzoxazinorifamycin [Compound 1] | 0.00025 | 2 | 0.008 | >8 | 2
2 | 25-O-deacetyl-5′-[(8aR)octahydropyrrolo[1,2-a]pyrazin-2-yl]benzthiazinorifamycin [Compound 78] | 0.00012 | 0.12 | 0.002 | 4 | 0.12
3 | CCOC(=O)N1CCCC2CN(c3cc(O)c4nc5c6c7c8c(C)c(O)c6c(=O)c(c-5oc4c3)NC(=O)C(C)=CC=CC(C)C(O)C(C)C(O)C(C)C(O)C(C)C(OC)C=COC(C)(O8)C7=O)CC21 (mixture of isomers) [Compound 42, 25-O-deacetyl-3′-hydroxy-5′-[1-ethylcarbamyl-(4aR,7aR)-octahydro-6H-pyrrolo [3,4-b]pyridin-6-yl]benzoxazinorifamycin] | 0.00012 | 0.5 | 0.008 | 8 | 2
4 | CCOC(=O)N1CCCC2CN(c3cc(O)c4nc5c6c7c8c(C)c(O)c6c(=O)c(c-5oc4c3)NC(=O)C(C)=CC=CC(C)C(O)C(C)C(O)C(C)C(OC(C)=O)C(C)C(OC)C=COC(C)(O8)C7=O)CC21 (single isomer, unassigned) [Compound 40] | 0.008 (≈ 0.00802 µM) | 0.5 (≈ 0.501 µM) | 0.06 (≈ 0.0602 µM) | >8 | 1 (≈ 1 µM)
5 | COC1C=COC2(C)Oc3c(C)c(O)c4c(=O)c(c5oc6cc(N7CC8C(C7)C8NC(=O)OCC[Si](C)(C)C)cc(O)c6nc-5c4c3C2=O)NC(=O)C(C)=CC=CC(C)C(O)C(C)C(O)C(C)C(OC(C)=O)C1C [Compound 2, 3′-hydroxy-5′-[6-(2-trimethylsilyl)ethylcarbamyl-(1R,5S)-3-azabicyclo[3.1.0]hex-3-yl]benzoxazinorifamycin] | 0.03 (≈ 0.0288 µM) | >8 | 1 (≈ 0.96 µM) | >8 | >8
6 | CCOC(=O)NC1CCN(c2cc(O)c3nc4c5c6c7c(C)c(O)c5c(=O)c(c-4oc3c2)NC(=O)/C(C)=C\C=C\[C@H](C)[C@H](O)[C@@H](C)[C@@H](O)[C@@H](C)[C@H](O)[C@H](C)[C@@H](OC)/C=C/O[C@@](C)(O7)C6=O)CC1 [Compound 3, 25-O-deacetyl-3′-hydroxy-5′-(4-ethylcarbamyl-1-piperidinyl)benzoxazinorifamycin] | 0.0005 (≈ 0.000538 µM) | 0.25 (≈ 0.269 µM) | 0.03 (≈ 0.0323 µM) | 4 (≈ 4.31 µM) | 0.12 (≈ 0.129 µM)
7 | COC1C=COC2(C)Oc3c(C)c(O)c4c(=O)c(c5oc6cc(N7CC8C(N)C8C7)cc(O)c6nc-5c4c3C2=O)NC(=O)C(C)=CC=CC(C)C(O)C(C)C(O)C(C)C(OC(C)=O)C1C [Compound 4, 3′-hydroxy-5′-[6-amino-(1R,5S)-3-azabicyclo[3.1.0]hex-3-yl]benzoxazinorifamycin] | 0.00025 (≈ 0.000279 µM) | 0.25 (≈ 0.279 µM) | 0.03 (≈ 0.0334 µM) | >8 | 0.5 (≈ 0.557 µM)
8 | CO[C@H]1/C=C/O[C@@]2(C)Oc3c(C)c(O)c4c(=O)c(c5oc6cc(N7C[C@@H]8CCCN[C@@H]8C7)cc(O)c6nc-5c4c3C2=O)NC(=O)/C(C)=C\C=C\[C@H](C)[C@H](O)[C@@H](C)[C@@H](O)[C@@H](C)[C@H](OC(C)=O)[C@@H]1C [Compound 5, 3′-hydroxy-5′-[(4aS,7aS)-octahydro-6H-pyrrolo[3,4-b]pyridin-6-yl]benzoxazinorifamycin] | 0.00025 (≈ 0.00027 µM) | 2 (≈ 2.16 µM) | 0.015 (≈ 0.0162 µM) | 8 (≈ 8.65 µM) | 0.5 (≈ 0.541 µM)
9 | CO[C@H]1/C=C/O[C@@]2(C)Oc3c(C)c(O)c4c(=O)c(c5oc6cc(N7C[C@@H]8CCCN[C@@H]8C7)cc(O)c6nc-5c4c3C2=O)NC(=O)/C(C)=C\C=C\[C@H](C)[C@H](O)[C@@H](C)[C@@H](O)[C@@H](C)[C@H](O)[C@@H]1C [Compound 7, 25-O-deacetyl-3′-hydroxy-5′-[(4aS,7aS)-octahydro-6H-pyrrolo[3,4-b]pyridin-6-yl]benzoxazinorifamycin] | 0.004 (≈ 0.00453 µM) | 4 (≈ 4.53 µM) | 0.12 (≈ 0.136 µM) | >8 | 4 (≈ 4.53 µM)
10 | CO[C@H]1/C=C/O[C@@]2(C)Oc3c(C)c(O)c4c(=O)c(c5oc6cc(N7CCC(N8CCOCC8)CC7)cc(O)c6nc-5c4c3C2=O)NC(=O)/C(C)=C\C=C\[C@H](C)[C@H](O)[C@@H](C)[C@@H](O)[C@@H](C)[C@H](OC(C)=O)[C@@H]1C [Compound 9, 3′-hydroxy-5′-(4-morpholinyl-1-piperidinyl)benzoxazinorifamycin] | 0.001 (≈ 0.00103 µM) | 2 (≈ 2.06 µM) | 0.015 (≈ 0.0155 µM) | 8 (≈ 8.26 µM) | 2 (≈ 2.06 µM)
11 | CO[C@H]1/C=C/O[C@@]2(C)Oc3c(C)c(O)c4c(=O)c(c5oc6cc(N7CC8CCC(C7)N8)cc(O)c6nc-5c4c3C2=O)NC(=O)/C(C)=C\C=C\[C@H](C)[C@H](O)[C@@H](C)[C@@H](O)[C@@H](C)[C@H](OC(C)=O)[C@@H]1C [Compound 10, 3′-hydroxy-5′-(3,8-diazabicyclo[3.2.1]octan-3-yl)benzoxazinorifamycin] | 0.00012 (≈ 0.000132 µM) | 2 (≈ 2.2 µM) | 0.008 (≈ 0.00878 µM) | >8 | 1 (≈ 1.1 µM)
12 | CO[C@H]1/C=C/O[C@@]2(C)Oc3c(C)c(O)c4c(=O)c(c5oc6cc(N7CCC(N8CCOCC8)CC7)cc(O)c6nc-5c4c3C2=O)NC(=O)/C(C)=C\C=C\[C@H](C)[C@H](O)[C@@H](C)[C@@H](O)[C@@H](C)[C@H](O)[C@@H]1C [Compound 11, 25-O-deacetyl-3′-hydroxy-5′-(4-morpholinyl-1-piperidinyl)benzoxazinorifamycin] | 0.00012 (≈ 0.000129 µM) | 1 (≈ 1.08 µM) | 0.004 (≈ 0.00431 µM) | 4 (≈ 4.31 µM) | 0.25 (≈ 0.27 µM)
13 | CO[C@H]1/C=C/O[C@@]2(C)Oc3c(C)c(O)c4c(=O)c(c5oc6cc(N7C[C@H]8CCCN[C@H]8C7)cc(O)c6nc-5c4c3C2=O)NC(=O)/C(C)=C\C=C\[C@H](C)[C@H](O)[C@@H](C)[C@@H](O)[C@@H](C)[C@H](OC(C)=O)[C@@H]1C [Compound 12, 3′-hydroxy-5′-[(4aR,7aR)-octahydro-6H-pyrrolo[3,4-b]pyridin-6-yl]benzoxazinorifamycin] | 0.00025 (≈ 0.00027 µM) | 0.25 (≈ 0.27 µM) | 0.004 (≈ 0.00432 µM) | 8 (≈ 8.65 µM) | 0.12 (≈ 0.13 µM)
14 | CO[C@H]1/C=C/O[C@@]2(C)Oc3c(C)c(O)c4c(=O)c(c5oc6cc(N7CCC(NC(=O)OCC(C)C)CC7)cc(O)c6nc-5c4c3C2=O)NC(=O)/C(C)=C\C=C\[C@H](C)[C@H](O)[C@@H](C)[C@@H](O)[C@@H](C)[C@H](OC(C)=O)[C@@H]1C [Compound 13] | 0.00012 (≈ 0.00012 µM) | 2 (≈ 2 µM) | 0.008 (≈ 0.00801 µM) | 4 (≈ 4 µM) | 0.5 (≈ 0.5 µM)
15 | CO[C@H]1/C=C/O[C@@]2(C)Oc3c(C)c(O)c4c(=O)c(c5oc6cc(N7C[C@H]8CCCN[C@H]8C7)cc(O)c6nc-5c4c3C2=O)NC(=O)/C(C)=C\C=C\[C@H](C)[C@H](O)[C@@H](C)[C@@H](O)[C@@H](C)[C@H](O)[C@@H]1C [Compound 15, 25-O-deacetyl-3′-hydroxy-5′-[(4aR,7aR)-octahydro-6H-pyrrolo[3,4-b]pyridin-6-yl]benzoxazinorifamycin] | 0.002 (≈ 0.00226 µM) | 1 (≈ 1.13 µM) | 0.03 (≈ 0.034 µM) | >8 | 0.25 (≈ 0.283 µM)
16 | CO[C@H]1/C=C/O[C@@]2(C)Oc3c(C)c(O)c4c(=O)c(c5oc6cc(N7CC8CCC(C7)N8)cc(O)c6nc-5c4c3C2=O)NC(=O)/C(C)=C\C=C\[C@H](C)[C@H](O)[C@@H](C)[C@@H](O)[C@@H](C)[C@H](O)[C@@H]1C [Compound 16, 25-O-deacetyl-3′-hydroxy-5′-(3,8-diazabicyclo[3.2.1]octan-3-yl)benzoxazinorifamycin] | 0.001 (≈ 0.00115 µM) | 0.25 (≈ 0.288 µM) | 0.015 (≈ 0.0173 µM) | 4 (≈ 4.6 µM) | 0.12 (≈ 0.138 µM)
17 | CO[C@H]1/C=C/O[C@@]2(C)Oc3c(C)c(O)c4c(=O)c(c5oc6cc(N7CCC(N(C)C)CC7)cc(O)c6nc-5c4c3C2=O)NC(=O)/C(C)=C\C=C\[C@H](C)[C@H](O)[C@@H](C)[C@@H](O)[C@@H](C)[C@H](OC(C)=O)[C@@H]1C [Compound 17, 3′-hydroxy-5′-(4-N,N-dimethylamino-1-piperidinyl)benzoxazinorifamycin] | 0.00012 (≈ 0.000129 µM) | 1 (≈ 1.08 µM) | 0.008 (≈ 0.00863 µM) | 8 (≈ 8.63 µM) | 1 (≈ 1.08 µM)
18 | COC1C=COC2(C)Oc3c(C)c(O)c4c(=O)c(c5oc6cc(N7CC(C)CC(C)C7)cc(O)c6nc-5c4c3C2=O)NC(=O)C(C)=CC=CC(C)C(O)C(C)C(O)C(C)C(O)C1C (centres unmarked) [Compound 113] | 0.002 (≈ 0.0023 µM) | 0.12 (≈ 0.138 µM) | 0.008 (≈ 0.0092 µM) |  | 1 (≈ 1.15 µM)
19 | CCc1cc(C)cc2nc3c4c5c6c(C)c(O)c4c(=O)c(c-3oc12)NC(=O)C(C)=CC=CC(C)C(O)C(C)C(O)C(C)C(O)C(C)C(OC)C=COC(C)(O6)C5=O (centres unmarked) [Compound 130] | 0.25 (≈ 0.319 µM) |  |  | >8 | 1 (≈ 1.27 µM)
